From ChEMBL document CHEMBL5505993, “Identification of a ferritinophagy inducer via sinomenine modification for the treatment of colorectal cancer” (Eur J Med Chem, 2024)
pIC50: −log10 of the molar value. Active and inactive are the calls of the source. No cut-off for these calls is given here.

Experiments:
[1] = Toxicity in BALB/c mouse xenografted with human HCT-116 cells assessed as histopathological changes in liver at 30 mg/kg,ip administrated daily for 14 days by hematoxylin and eosin staining based microscopic analysis; format: organism-based; conditions: in vivo, 336 h, time 14 day
[2] = test system: HCT-116; experiment: Induction of autophagy in human HCT-116 cells assessed as formation of autophagosomes at 20 uM incubated for 12 hrs in presence of Bafilomycin A1 by confocal microscopic analysis; format: functional, cell-based
[3] = test system: HCT-116; experiment: Induction of […] ROS production in human HCT-116 cells incubated for 12 hrs by DCFH-DA probe based flow cytometry; format: functional, cell-based
[4] = test system: HCT-116; experiment: Induction of ferroptosis in human HCT-116 cells assessed as effect on SLC7A11 protein expression at 5 to 20 uM incubated for 12 hrs by Western blotting analysis; format: functional, cell-based; conditions: dose 5-20 µM
[5] = test system: HCT-116; experiment: Induction of autophagy in human HCT-116 cells assessed as increase in intracellular ferrous ion level at 20 uM incubated for 12 hrs by Lyso tracker green staining based confocal microscopic analysis; format: functional, cell-based
[6] = test system: HCT-116; experiment: Induction of ferritin autophagy in human HCT-116 cells assessed as upregulation of ratio of LC3B-II to LC3B-I protein expression at 5 to 20 uM incubated for 12 hrs by Western blotting analysis; format: functional, cell-based; conditions: dose 5-20 µM
[7] = test system: HCT-116; experiment: Induction of ferritin autophagy in human HCT-116 cells assessed as upregulation of NCOA4 protein expression at 5 to 20 uM incubated for 12 hrs by Western blotting analysis; format: functional, cell-based; conditions: dose 5-20 µM
[8] = Cytotoxicity against human NCM460 cells assessed as inhibition of cell growth incubated for 48 hrs by CCK-8 assay; format: toxicity, cell-based
[9] = test system: HCT-116; experiment: Antitumor activity against human HCT-116 cells xenografted in BALB/c mouse assessed as reduction in tumor volume at 60 mg/kg,ip administrated daily for 14 days; format: functional, organism-based; conditions: time 14.0 day
[10] = test system: HCT-116; experiment: Induction of ferroptosis in human HCT-116 cells assessed as increase in intracellular lipid ROS accumulation at 20 uM incubated for 12 hrs in presence of ferroptosis inhibitor, deferoxamine mesylate by C11 BODIPY probe based flow cytometry; format: functional, cell-based
[11] = test system: HCT-116; experiment: Induction of ferroptosis in human HCT-116 cells assessed as increase in ferrous ion level in lysosomes at 20 uM incubated for 12 hrs by Lyso tracker red staining based confocal fluorescence microscopic analysis; format: functional, cell-based
[12] = test system: HCT-116; experiment: Antitumor activity against human HCT-116 cells xenografted in BALB/c mouse assessed as increase in LC3B expression at 30 mg/kg,ip administrated daily for 14 days by immunohistochemistry; format: functional, organism-based; conditions: time 14.0 day
[13] = test system: HCT-116; experiment: Induction of ferritin autophagy in human HCT-116 cells assessed as upregulation of NCOA4 protein expression at 20 uM incubated for 12 hrs by immunoprecipitation assay; format: functional, cell-based
[14] = test system: HCT-116; experiment: Induction of ferroptosis in human HCT-116 cells assessed as increase in ferrous ion level in lysosomes at 20 uM incubated for 12 hrs by Hoechst 33342 staining based confocal fluorescence microscopic analysis; format: functional, cell-based
[15] = Toxicity in BALB/c mouse xenografted with human HCT-116 cells assessed as histopathological changes in kidney at 60 mg/kg,ip administrated daily for 14 days by hematoxylin and eosin staining based microscopic analysis; format: organism-based; conditions: in vivo, 336 h, time 14 day
[16] = test system: HCT-116; experiment: Induction of ferroptosis in human HCT-116 cells assessed as increase in intracellular lipid ROS accumulation at 5 to 20 uM incubated for 12 hrs by C11 BODIPY probe based fluorescence microscopic analysis; format: functional, cell-based; conditions: dose 5-20 µM
[17] = test system: HCT-116; experiment: Induction of ferroptosis in human HCT-116 cells assessed as increase in 4-HNE level at 20 uM by ELISA; format: functional, cell-based
[18] = test system: HCT-116; experiment: Cytotoxicity against human HCT-116 cells assessed as inhibition of cell growth incubated for 48 hrs by CCK-8 assay; format: functional, cell-based; conditions: HCT-116, 48 h
[19] = test system: HCT-116; experiment: Antitumor activity against human HCT-116 cells xenografted in BALB/c mouse assessed as increase in 4-HNE level in tumor at 60 mg/kg,ip administrated daily for 14 days by ELISA; format: functional, organism-based; conditions: time 14.0 day
[20] = Toxicity in BALB/c mouse xenografted with human HCT-116 cells assessed as change in body weight at 60 mg/kg,ip administrated daily for 14 days; format: organism-based; conditions: in vivo, 336 h, time 14 day
[21] = Toxicity in BALB/c mouse xenografted with human HCT-116 cells assessed as histopathological changes in liver at 60 mg/kg,ip administrated daily for 14 days by hematoxylin and eosin staining based microscopic analysis; format: organism-based; conditions: in vivo, 336 h, time 14 day
[22] = test system: HCT-116; experiment: Induction of ferroptosis in human HCT-116 cells assessed as effect on p53 protein expression at 5 to 20 uM incubated for 12 hrs by Western blotting analysis; format: functional, cell-based; conditions: dose 5-20 µM
[23] = test system: HCT-116; experiment: Antitumor activity against human HCT-116 cells xenografted in BALB/c mouse assessed as presence of pyknotic nucleus at 30 mg/kg,ip administrated daily for 14 days by hematoxylin and eosin staining based microscopic analysis; format: functional, organism-based; conditions: time 14.0 day
[24] = test system: HCT-116; experiment: Antitumor activity against human HCT-116 cells xenografted in BALB/c mouse assessed as reduction in tumor growth at 60 mg/kg,ip administrated daily for 14 days; format: functional, organism-based; conditions: time 14.0 day
[25] = Toxicity in BALB/c mouse xenografted with human HCT-116 cells assessed as histopathological changes in lung at 60 mg/kg,ip administrated daily for 14 days by hematoxylin and eosin staining based microscopic analysis; format: organism-based; conditions: in vivo, 336 h, time 14 day
[26] = test system: HCT-116; experiment: Cytotoxicity against human HCT-116 cells assessed as inhibition of cell growth incubated for 12 to 48 hrs by CCK-8 assay; format: functional, cell-based; conditions: time 12-48 hrs
[27] = test system: HCT-116; experiment: Induction of autophagy in human HCT-116 cells transfected with mRFP-GFP-LC3B assessed as formation of autolysosomes by measuring reduction in GFP to mRFP fluorescence ratio at 5 to 20 uM incubated for 12 hrs by Lyso tracker red staining based confocal fluorescence microscopic analysis; format: functional, cell-based; conditions: dose 5-20 µM
[28] = test system: HCT-116; experiment: Cytotoxicity against human HCT-116 cells assessed as inhibition of cell growth incubated for 24 hrs by CCK-8 assay; format: functional, cell-based; conditions: HCT-116, 24 h
[29] = test system: HCT-116; experiment: Antitumor activity against human HCT-116 cells xenografted in BALB/c mouse assessed as reduction in tumor volume at 30 mg/kg,ip administrated daily for 14 days; format: functional, organism-based; conditions: time 14.0 day
[30] = test system: HCT-116; experiment: Antitumor activity against human HCT-116 cells xenografted in BALB/c mouse assessed as presence of pyknotic nucleus at 60 mg/kg,ip administrated daily for 14 days by hematoxylin and eosin staining based microscopic analysis; format: functional, organism-based; conditions: time 14.0 day
[31] = test system: HCT-116; experiment: Inhibition of colony formation in human HCT-116 cells incubated for 12 hrs by crystal violet staining based analysis; format: functional, cell-based
[32] = test system: HCT-116; experiment: Induction of ferroptosis in human HCT-116 cells assessed as increase in intracellular ferrous ion level at 20 uM incubated for 12 hrs in presence of ferroptosis inhibitor, Ferrostatin-1 by ferroOrange probe based flow cytometric analysis; format: functional, cell-based
[33] = test system: HCT-116; experiment: Induction of ferroptosis in human HCT-116 cells assessed as effect on GSH level at 5 to 20 uM incubated for 12 hrs; format: functional, cell-based; conditions: dose 5-20 µM
[34] = Toxicity in BALB/c mouse xenografted with human HCT-116 cells assessed as change in body weight at 30 mg/kg,ip administrated daily for 14 days; format: organism-based; conditions: in vivo, 336 h, time 14 day
[35] = test system: HCT-116; experiment: Induction of ferroptosis in human HCT-116 cells assessed as increase in intracellular lipid ROS accumulation at 20 uM incubated for 12 hrs in presence of ferroptosis inhibitor, Ferrostatin-1 by C11 BODIPY probe based flow cytometry; format: functional, cell-based

## C=C(Cl)C(=O)NCCCCCCCCCCCC(=O)Oc1c(OC)ccc2c1[C@@]13CCN(C)[C@@H](C2)[C@H]1C=C(OC)C(=O)C3
[1]
  Activity: Non-Toxic
[2]
  Activity: inactive
[3]
  Activity: Active
[4]
  Activity: inactive
[5]
  Activity: Active
[6]
  Activity: Active
[7]
  Activity: inactive
[8]
  IC50 at 48 h: 19 µM
[9]
  Activity: Active
[10]
  Activity: Active
[11]
  Activity: Active
[12]
  Activity: Active
[13]
  Activity: inactive
[14]
  Activity: Active
[15]
  Activity: Non-Toxic
[16]
  Activity: Active
[17]
  Activity: Active
[18]
  pIC50: 5.23
[19]
  Activity: Active
[20]
  Activity: Non-Toxic
[21]
  Activity: Non-Toxic
[22]
  Activity: inactive
[23]
  Activity: Active
[24]
  Activity: Active
[25]
  Activity: Non-Toxic
[26]
  Activity: Dose-Dependent Effect
[27]
  Activity: Active
[28]
  pIC50: 4.95
[29]
  Activity: Active
[30]
  Activity: Active
[31]
  inhibition: Dose-Dependent Effect
[32]
  Activity: inactive
[33]
  Activity: inactive
[34]
  Activity: Non-Toxic
[35]
  Activity: Active
